Assay results: patent publication US20210060125A1, “METHOD AND USE OF PnPP-19 FOR PREVENTING AND TREATING EYE DISEASES” (priority 2019, published 2021)
Entries after “also recorded” stand apart in the source; their conditions may differ.

Legend:
[1] = system: Hen's egg chorioallantoic membranes (HET-CAM); experiment: HET-CAM ocular irritation model; parameters: key to Irritability classification: NI = Non- irritant; SI = severely irritant; conditions: for OII ± SD (mean cumulative score) / OII ± SD: mean ± S.D., n = 6
Experimental: Hen's egg—chorioallantoic membranes (HET-CAM) were used to assess anti-irritant properties of different concentrations of PnPP-19. PnPP-19 was dissolved in 300 μL of saline in order to achieve the concentration of 40 μg, 80 μg, 160 μg, 320 μg, in 20 μL (the volume of one eye drop). Sodium chloride 0.9% (NaCl) was used as negative control and sodium hydroxide 0.1 M (NaOH) as a positive control.
The reactions were classified according to a semi-quantitatively analysis, on a scale from 0 (no reaction) to 3 (strong reaction). The ocular irritation index (OII) was then calculated by the following expression: […]
where h is time (in seconds) from the beginning of bleeding; l lysis, and c coagulation. The following classification was used: OII≤0.9: […]; 0.9<OII≤4.9: moderately irritant; 4.9<OII≤8.9: irritant; 8.9<OII≤21: severely irritant.

[2] = system: HA-induced glaucoma in rats; conditions: cited from earlier work
Human glaucoma = conditions: cited from earlier work
[3] = system: ocular hypertensive rabbits; conditions: hypertonic saline into the vitreous body; cited from earlier work
Glaucomatous dogs = conditions: cited from earlier work
normotensive Wistar rats = experiment: In vivo single-dose acute toxicology, topical eye drops; parameters: species or system rat; conditions: single topical dose 40, 80, 160 μg in 20 μL
Experimental: Single-dose topical application of PnPP-19 was dissolved in 300 of saline at the dose of 40, 80 and 160 μg, in 20 μL of saline, in the form of eye drops, was evaluated in normotensive Wistar rats (150-200 g), n=4 rats per dose group. Fundoscopy and electroretinography were performed at days 0, 1, 7 and 15 after PnPP-19 administration. At day 15, eye tissue was collected to histopathological analysis. Day 0 was considered as a control time point for any dose to evaluate for observed differences.

[4] = system: glaucomatous male Wistar rats; assay type: in vivo, rat; conditions: 72 hours after PnPP-19 instillation
Experimental: The effectiveness of the PnPP-19 was first evaluated by measuring the changes in IOP of glaucomatous male Wistar rats (180-220 g, 7 to 10 weeks old, n=6). Glaucoma was induced in the right eye by the injection of 30 μL hyaluronic acid (HA) (10 mg/mL) into the anterior chamber through the clear cornea once per week for 3 weeks on the same calendar day and at the same time. Evaluation of the IOP was performed using a TonoPen (Tono-PenVet, Reichert). To perform the measurements, unsedated animals were topically anesthetized by the instillation of 0.5% proxymetacaine hydrochloride. Three IOP readings (with SE less than 5%) were taken for each eye. The average of these three readings was considered the corresponding value of the IOP. Electroretinogram (ERG) was recorded before and after the glaucoma induction. Eyes were enucleated and corneas and retinas were prepared for histology. The groups of treatment were defined as Healthy or non-glaucomatous—left eye, where HA was not applied; Glaucomatous, Non-treated—right eye, where HA was applied, treated with control (vehicle, saline); […]
The effects of PnPP-19 on rat's vision at the end of the HA glaucomatous model was analyzed by ERG to evaluate if the peptide impacts the visual acuity. […]

[5] = system: male normotensive Wistar rat eye; experiment: Eye permeation and diffusion of fluorescence-labeled PnPP-19; assay type: in vivo; conditions: 80 μg/20 μl eye drop in saline; 3 hours
Experimental: Fluorescence-labeled PnPP-19 (FITC) was applied topically in form of eye drops (peptide dissolved in saline) in a dose of 80 μg/20 μl in the male normotensive Wistar rat eye. Vehicle (saline) was applied in the contralateral eye to be used as control. After 3 hours the eyes were enucleated and prepared for histological analysis using fluorescence microscope APOTOME.2 ZEISS.

[6] = system: male Wistar rats with retinal ischemia; experiment: Ischemic retina model, study 2 (pre-treatment or prevention); assay type: in vivo, rat; conditions: pre-treatment; 3 cd.s.m−2, scotopic; n=6
Experimental: The potential neuroprotective effect of PnPP-19 in the retina was investigated with an animal model of ischemic injury. For this purpose, male Wistar rats were treated with PnPP-19 either before or after induction of ischemia (80 μg in 20 μl (one eye drop) once a day administration for seven days).
Male Wistar rats (180-200 g) were anesthetized intraperitoneally with ketamine hydrochloride 90 mg/kg and xylazine hydrochloride 10.0 mg/kg and the retinas were made ischemic according to the protocols of Hughes (HUGHES, W. F. Quantitation of ischemic damage in the rat retina. Exp Eye Res, 53(5): 573-82, 1991), and of Louzada-Junior et al. (Louzada-Junior, P., Dias, J. J., Santos, W. F., Lachat, J. J., Bradford, H. F., Coutinho-Netto, J. Glutamate Release in Experimental Ischaemia of the Retina: An Approach Using Microdialysis. J Neurochem, 59(1):358-63, 1992). IOP was elevated by cannulating the eye anterior chamber, with a sterile 27-gauge needle attached to a manometer/pump connected to an air reservoir (HUGHES, W. F. Quantitation of ischemic damage in the rat retina. Exp Eye Res, 53(5): 573-82, 1991) elevating the IOP to 155 mmHg for 40 min evoking ischemia (indicated by whitening of the eye fundus as blood flow is interrupted). […]
We measured different layer thicknesses to quantify the degree of cell loss to measure the ischemic damage in the rat retina. […]

healthy subjects = experiment: Phase 1 clinical trial, safety, tolerability and IOP; assay type: in vivo, human
Experimental: Twelve healthy subjects, 6 males and 6 females, were selected to evaluate the safety and tolerability of PnPP-19. PnPP-19 were applied as one eye drop per day (with 250 μg of peptide in 50 μL saline (0.5%)) for 7 days, in one eye, while vehicle (the formulation without the peptide) was applied in the contralateral eye. The eye were randomized in a double-blind way to each intervention.
The safety was analyzed by an ophthalmologist thought a slit lamp in conjunction with a biomiscrscope to examine the anterior and posterior segment of the eye. This procedure was performed in both eyes, in each subject, in the days 1, 2, 3, 4 and 7 of the treatment.
The tolerability was analyzed thought a daily tolerability questionnaire. […] One patient reported mild headache, that last minutes.
IOP was measured with a non-contact tonometer before and 1,2,4 6 and 24 hours after the instillations of PnPP-19 or vehicle.

[7] = all concentrations tested (40-320 μg in 20 μL)
[8] = daily tolerability questionnaire, n=12

In the case of [Na+].[OH-] [0.1M NaOH, sodium hydroxide, reference compound], the Irritability classification ([1]; 0.1 M, positive control) is reported as “SI”, the “irritancy ranking in words” value ([1]; 0.1 M, positive control) is reported as “severely irritant (8.9<OII≤21: severely irritant)” and the “OII ± SD (mean cumulative score)” value ([1]; 0.1 M, positive control) is reported as 21.11 ± 0.32. For the same compound, the “OII ± SD (mean cumulative score)” value ([1]; 0.1 M, positive control, listed as 0.1 M NaOH) was 21.11±0.32.

For CC(C)OC(=O)CCC/C=C\C[C@@H]1[C@@H](CC[C@@H](O)CCc2ccccc2)[C@H](O)C[C@@H]1O [Latanoprost], the “Average IOP reduction (%)” value [2] is listed as 28.1%, the “Average IOP reduction (%)” value (Human glaucoma) is listed as 13.1% and the “effect on ocular hypertension” value [3] is listed as “not”.

In the case of O=C(CCC/C=C\C[C@@H]1[C@@H](CC[C@@H](O)CCc2ccccc2)[C@H](O)C[C@@H]1O)OCCCCO[N+](=O)[O-] [Latanoprostene Bunod], the “Average IOP reduction (%)” value (Human glaucoma) is given as 31%, the “reduction in IOP” value (Glaucomatous dogs) is given as 44% and the “effect on ocular hypertension” value [3] is given as “significantly blunted”.

In the case of CC(C)(C)NC[C@H](O)COc1nsnc1N1CCOCC1 [Timolol], the “Average IOP reduction (%)” value [2] is given as 25.3% and the “Average IOP reduction (%)” value (Human glaucoma) is given as 18%.

In the case of “Ac-GERRQYFWIAWYKLANSKK-NH2 (N-terminus and C-terminus assumed) [PnPP-19, Gly Glu Arg Arg Gln Tyr Phe Trp Ile Ala Trp Tyr Lys Leu Ala Asn Ser Lys Lys]”, the Irritability classification ([1]; 40 μg in 20 μL saline) is reported as “NI”, the “OII ± SD” value ([1]; 40 μg in 20 μL saline) is reported as no more than 0.9 ± 0.0 and the Irritability classification ([1]; 80 μg in 20 μL saline) is reported as “NI”. For the same compound, the “OII ± SD” value ([1]; 80 μg in 20 μL saline) was no more than 0.9 ± 0.0, the Irritability classification ([1]; 160 μg in 20 μL saline) was “NI” and the “OII ± SD” value ([1]; 160 μg in 20 μL saline) was no more than 0.9 ± 0.0. The Irritability classification ([1]; 320 μg in 20 μL saline) was “NI”, the “OII ± SD” value ([1]; 320 μg in 20 μL saline) was no more than 0.9 ± 0.0 and the “irritancy ranking in words” value [1, 7] was “non-irritant”. The “mean cumulative scores (OII)” value [1, 7] was no more than 0.9, the “signs of vascular response” value ([1]; all concentrations tested, observed up to 5 min) was “did not show any signs of vascular response” and the “Histological morphology of cornea and retina” value (normotensive Wistar rats; day 15, n=4) was “keeps the same morphology; also recorded: does not alter the retinal morphology; also recorded: does not alter the cornea morphology”. For the same compound, the “Fundoscopy vs day 0” value (normotensive Wistar rats; days 1, 7, 15, n=4 per dose) was “No difference was observed; also recorded: does not affect retinal vessels”, the “Electroretinography a and b wave vs day 0” value (normotensive Wistar rats; up to day 15) was “absence of retinal nerve damage” and the “Dark-adapted ERG vs glaucomatous non-treated group” value [4] was “no difference”. For the same compound, the “Fluorescence in cornea, vitreous body and retina vs vehicle” value [5] was “permeates the cornea and reaches the retina”, the ERG b-amp/a-amp ratio [6] was “an increasing tendency in b/a ratio; also recorded: prevents vision loss” and the “Safety, slit lamp examination of anterior and posterior segment” value (healthy subjects; 250 μg in 50 μL saline (0.5%), one drop per day for 7 days, n=12) was “no safety finding”. For the same compound, the “Blood pressure, heart rate, weight, physical examination, electrocardiogram” value (healthy subjects; 250 μg in 50 μL, one drop per day for 7 days, n=12) was “no difference in blood pressure, heart rate, weight, physical examination and electrocardiogram results”, the “Relation of reported adverse events to treatment (investigator)” value (healthy subjects; daily tolerability questionnaire, four events reported) was “none of those adverse events were related to PnPP-19” and the “Eye burning after instillation” value (healthy subjects; [8]) was “in one patient”. The “Puritis in the eye after instillation” value (healthy subjects; [8]) was “one patient”.

In the case of Latanoprost, the “reduction in IOP” value (Glaucomatous dogs) is listed as 27%.
